Measurements from paper PMC9416163, “Antiproliferative Copper(II) Complexes Bearing Mixed Chelating Ligands: Structural Characterization, ROS Scavenging, In Silico Studies, and Anti-Melanoma Activity” (Pharmaceutics, 2022).

What was measured:
[1] = test system: Human fibroblast cells (BJ); assay: MTT cell viability assay on BJ cells; assay type: cell-based; details: for IC50: MTT
Method: (§1) Human fibroblast cells (BJ-ATCC CRL-2522, USA) were grown in minimal essential medium (MEM) supplemented with 2 mM L-Glutamine, 10% fetal calf serum (FCS), 100 units/mL of penicillin, and 100 µg/mL of streptomycin at 37 °C in a humidified incubator under an atmosphere containing 5% CO2. Mouse melanoma cells (B16-ATCC CRL-6475, USA) were grown in DMEM (Dulbecco’s Modified Eagle Medium) supplemented with reagents like MEM. All cell cultivation media and reagents were purchased from Biochrom AG (Berlin, Germany) and Sigma-Aldrich (Darmstadt, Germany).
(§2) Cell viability was evaluated using the MTT assay (3-(4,5-dimethylthiazol-2-yl)-2,5-diphenyltetrazolium bromide) as previously described. Briefly, BJ and B16 cells were seeded in 96-well plates at densities of 10,000 cells/well and 7000 cells/well and further cultured in the medium for 24 h. The next day, the investigated compounds were added at a concentration of 1 to 25 μM for 24 and 48 h. The cells cultivated in medium without the studied samples served as negative controls. After incubation for the desired times, the medium was replaced with MTT solution (1 mg/mL) and incubated for an additional 4 h at 37 °C. Finally, the medium was collected, and DMSO was used to dissolve the insoluble formazan product. A Mithras 940 (Berthold, Bad Wildbad, Germany) plate reader was used to measure the absorbance of the samples at 570 nm. The data were corrected for background, and the percentage of viable cells was obtained using the following equation:Cell viability = [(A570 of treated cells)/(A570 of untreated cells)] × 100 (%)
(§3) Half-maximal inhibitory concentration (IC50) was determined by fitting the data with a sigmoidal logistic function using Origin 8.1 (Microcal Inc., Northampton, MA, USA) software.

[2] = test system: B16 murine melanoma cells; assay: MTT cell viability assay on B16 cells; assay type: cell-based, mouse; details: for IC50: MTT
Method: as §1, §2, §3

[3] = test system: B16 cells; assay: Cell cycle analysis (PI, flow cytometry); assay type: cell-based, mouse; details: 24 h; for changes in the cell cycle: 1 μM or 5 μM; for cells in the G2/M phase: untreated 15.53%; for cells in the S phase: untreated 25.65%; for cells in the G0/G1 phase: untreated 49.70%
Method: Twenty-four hours after treatment of B16 cells with concentrations of 1 and 5 μM of each compound, cells were harvested and fixed with pre-chilled 70% ethanol solution at −20 °C. Cells were incubated with 0.2 mg/mL RNAse and 20 μg/mL propidium iodide (PI) in a 0.1% Triton TX-100 solution, in the dark, for 30 min at 37 °C. Cell cycle distribution was analyzed using a Beckman Coulter Cell Lab Quanta SC Flow Cytometer (Indianapolis, IN, USA), and the data were analyzed using the Quanta Analysis software.

[4] = EPR, interaction with superoxide (KO2); details: 100 µM in DMSO, KO2 added
Method: The C, N, and H chemical analyses were carried out with a EuroEA elemental analyzer. Fourier Transform Infrared spectroscopy (FTIR) spectra were recorded with a Tensor 37 spectrometer (Bruker, Billerica, MA, USA) in the 400–4000 cm^−1 range. A Jasco V 670 spectrophotometer (Jasco, Easton, MD, USA) with Spectralon as a standard in the 200–1500 nm range was used to record the UV-Vis spectra in solid-state. A continuous wave X-Band Bruker EMX plus EPR spectrometer (Bruker, Karlsruhe, Germany) equipped with a Bruker X-SHQ 4119HS-W1 X-Band resonator was used for the X-band EPR measurements. The parameters for the X-Band measurements were set as follows: microwave frequency 9.879 GHz, microwave power 6.325 mW, modulation amplitude 0.2 mT, conversion time 74.17 ms, and time constant 40.96 ms at 35 scans. All measurements were carried out at room temperature. Simultaneous Thermogravimetric/Differential Scanning Calorimetry–Mass spectroscopy (TG-DSC/MS) measurements were performed on a TGA/DSC1 Thermal Analyser (Mettler Toledo, Schwarzenbach, Switzerland), coupled to a Vacuum Thermostar Mass Spectrometer (Pfeiffer, Asslar, Germany) under the following conditions: isothermal conditioning at 25 °C, temperature range from 25 to 800 °C, heating rate 5 °C/min, dynamic air atmosphere with a flow rate of 100 mL/min, sample masses of 2–4 mg, 150 μL platinum crucible; empty crucible served as reference. The blank curve was subtracted. Evolved gasses were introduced into the Mass Spectrometer via a 75 cm heated capillary.
In contrast, all compounds in the presence of HO⋅ radicals show the trapping ability of these radicals, as indicated by the additional EPR signals in all four EPR spectra.

[5] = test system: MKN-45 cells; parameters: method as in doi:10.1080/00958972.2018.1447668; details: 48 h of incubation; cited from earlier work

CC(=O)C=C([O-])c1ccccc1.O=[N+]([O-])[O-].[Cu+2].c1ccc(-c2ccccn2)nc1 [Compound (4), [Cu(bpy)(bzac)(NO3)]]
IC50 ([1]; 24 h): 11.7 µM
IC50 ([1]; 48 h): 10.3 µM
IC50 ([2]; 24 h): 6.43 µM
IC50 ([2]; 48 h): 4.7 µM
changes in the cell cycle [3]: no changes in the cell cycle were observed
response to O2⋅^− radicals (EPR) [4]: neither scavenging nor a trapping ability toward superoxide radicals

CC(=O)C=C([O-])c1ccccc1.O.O=[N+]([O-])[O-].[Cu+2].c1cnc2c(c1)ccc1cccnc12 [Compound (2), [Cu(phen)(bzac)(NO3)]⋅H2O]
cell viability ([1]; 10 μM): 20%
IC50 ([1]; 24 h): 4.85 µM
IC50 ([1]; 48 h): 2.48 µM
cell viability ([1]; up to 25 μM): about 15%
cell viability ([2]; 10 μM): 10%
IC50 ([2]; 24 h): 2.65 µM
IC50 ([2]; 48 h): 1.44 µM
cell viability ([2]; up to 25 μM): about 5%
cells in the G2/M phase ([3]; 5 μM): 10.78%
cells in the S phase ([3]; 5 μM): 13.81%
cells in the G0/G1 phase ([3]; 5 μM): 54.90%
response to O2⋅^− radicals (EPR) [4]: exhibit a scavenging response

CC(=O)C=C([O-])c1ccccc1.[Cu+2].[O-][Cl+3]([O-])([O-])[O-].c1cnc2c(c1)ccc1cccnc12 [Compound (1), [Cu(phen)(bzac)(ClO4)]]
cell viability ([1]; 10 μM): 20%
IC50 ([1]; 24 h): 3.95 µM
IC50 ([1]; 48 h): 2.8 µM
cell viability ([1]; up to 25 μM): about 15%
cell viability ([2]; 10 μM): 10%
IC50 ([2]; 24 h): 3.48 µM
IC50 ([2]; 48 h): 2.2 µM
cell viability ([2]; up to 25 μM): about 5%
cells in the sub-G1 phase ([3]; 5 μM, untreated 9.11%): 18.43%
cells in the G2/M phase ([3]; 5 μM): 5.59%
cells in the S phase ([3]; 5 μM): 15.82%
cells in the G0/G1 phase ([3]; 5 μM): 60.14%
response to O2⋅^− radicals (EPR) [4]: exhibit a scavenging response
cytotoxicity compared with 5-fluorouracil [5]: significantly more cytotoxic against MKN-45 cells than 5-fluorouracil

CC(=O)C=C([O-])c1ccccc1.[Cu+2].[O-][Cl+3]([O-])([O-])[O-].c1ccc(-c2ccccn2)nc1 [Compound (3), [Cu(bpy)(bzac)]ClO4]
IC50 ([1]; 24 h): 11 µM
IC50 ([1]; 48 h): 10.4 µM
IC50 ([2]; 24 h): 8.28 µM
IC50 ([2]; 48 h): 4.65 µM
changes in the cell cycle [3]: no changes in the cell cycle were observed
response to O2⋅^− radicals (EPR) [4]: exhibit a scavenging response
cytotoxicity compared with 5-fluorouracil [5]: significantly more cytotoxic against MKN-45 cells than 5-fluorouracil
